Test results as given in PubChem BioAssay (NCI).
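Results reflect a 48-hour exposure of cells in 96-well plates to compound at five concentrations. GI50 marks 50% less growth. The concentration for full growth arrest is given as TGI.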

Key:
Assay in all cases: inhibition of tumour cell growth, NCI panel, 48 h
SF-295 CNS = tested on: SF-295 CNS
OVCAR-5 ovarian = tested on: OVCAR-5 ovarian
RXF 393 renal = tested on: RXF 393 renal
CAKI-1 renal = tested on: CAKI-1 renal
BT-549 breast = tested on: BT-549 breast
TK-10 renal = tested on: TK-10 renal
K-562 leukemia = tested on: K-562 leukemia
HCT-116 colon = tested on: HCT-116 colon
A549 NSCLC = tested on: A549 NSCLC
HOP-62 NSCLC = tested on: HOP-62 NSCLC
SK-MEL-5 melanoma = tested on: SK-MEL-5 melanoma
SNB-75 CNS = tested on: SNB-75 CNS
SNB-19 CNS = tested on: SNB-19 CNS
HCC-2998 colon = tested on: HCC-2998 colon
SN12C renal = tested on: SN12C renal
EKVX NSCLC = tested on: EKVX NSCLC
MDA-MB-435 = tested on: MDA-MB-435
MDA-MB-231 breast = tested on: MDA-MB-231 breast
HS 578T breast = tested on: HS 578T breast
RPMI-8226 leukemia = tested on: RPMI-8226 leukemia
OVCAR-8 ovarian = tested on: OVCAR-8 ovarian
OVCAR-3 ovarian = tested on: OVCAR-3 ovarian
UACC-62 melanoma = tested on: UACC-62 melanoma
SF-268 CNS = tested on: SF-268 CNS
U251 CNS = tested on: U251 CNS
PC-3 prostate = tested on: PC-3 prostate
HT29 colon = tested on: HT29 colon
HCT-15 colon = tested on: HCT-15 colon
KM12 colon = tested on: KM12 colon
SF-539 CNS = tested on: SF-539 CNS
SK-MEL-28 melanoma = tested on: SK-MEL-28 melanoma
NCI-H522 lung = tested on: NCI-H522 lung
ACHN renal = tested on: ACHN renal
NCI-H460 lung = tested on: NCI-H460 lung
UACC-257 melanoma = tested on: UACC-257 melanoma
HOP-92 NSCLC = tested on: HOP-92 NSCLC
OVCAR-4 ovarian = tested on: OVCAR-4 ovarian
CCRF-CEM leukemia = tested on: CCRF-CEM leukemia
786-0 renal = tested on: 786-0 renal
M14 melanoma = tested on: M14 melanoma
LOX IMVI melanoma = tested on: LOX IMVI melanoma
COLO 205 colon = tested on: COLO 205 colon
UO-31 renal = tested on: UO-31 renal
SK-OV-3 ovarian = tested on: SK-OV-3 ovarian
DU-145 prostate = tested on: DU-145 prostate
T-47D breast = tested on: T-47D breast
SK-MEL-2 melanoma = tested on: SK-MEL-2 melanoma
SW-620 colon = tested on: SW-620 colon
IGROV1 ovarian = tested on: IGROV1 ovarian
MALME-3M melanoma = tested on: MALME-3M melanoma
NCI/ADR-RES ovarian = tested on: NCI/ADR-RES ovarian
MOLT-4 leukemia = tested on: MOLT-4 leukemia
HL-60(TB) leukemia = tested on: HL-60(TB) leukemia
A498 renal = tested on: A498 renal

SMILES: Cc1cc2ncc(-c3cc4ccccc4c(N4CCN(C)CC4)n3)nc2cc1C
- GI50 (SF-295 CNS): 14.2 µM
- TGI (SF-295 CNS): 31.6 µM
- GI50 (OVCAR-5 ovarian): 8.87 µM
- TGI (OVCAR-5 ovarian): 49.2 µM
- GI50 (RXF 393 renal): 2.01 µM
- TGI (RXF 393 renal): 4.8 µM
- GI50 (CAKI-1 renal): 1.62 µM
- TGI (CAKI-1 renal): 3.12 µM
- GI50 (BT-549 breast): 14 µM
- TGI (BT-549 breast): 29.2 µM
- GI50 (TK-10 renal): 20 µM
- TGI (TK-10 renal): 44.1 µM
- GI50 (K-562 leukemia): 1.82 µM
- TGI (K-562 leukemia): 3.57 µM
- GI50 (HCT-116 colon): 1.67 µM
- TGI (HCT-116 colon): 3.09 µM
- GI50 (A549 NSCLC): 81.6 µM
- TGI (A549 NSCLC): > 100 µM
- GI50 (HOP-62 NSCLC): 21.2 µM
- TGI (HOP-62 NSCLC): 79.5 µM
- GI50 (SK-MEL-5 melanoma): 12.8 µM
- TGI (SK-MEL-5 melanoma): 29.4 µM
- GI50 (SNB-75 CNS): 11 µM
- TGI (SNB-75 CNS): 24 µM
- GI50 (SNB-19 CNS): 20.2 µM
- TGI (SNB-19 CNS): 89.8 µM
- GI50 (HCC-2998 colon): 1.69 µM
- TGI (HCC-2998 colon): 3.2 µM
- GI50 (SN12C renal): 6.07 µM
- TGI (SN12C renal): 65.8 µM
- GI50 (EKVX NSCLC): 33.7 µM
- TGI (EKVX NSCLC): > 100 µM
- GI50 (MDA-MB-435): 1.79 µM
- TGI (MDA-MB-435): 3.36 µM
- GI50 (MDA-MB-231 breast): 2.98 µM
- TGI (MDA-MB-231 breast): 10.3 µM
- GI50 (HS 578T breast): 12.7 µM
- TGI (HS 578T breast): 39.2 µM
- GI50 (RPMI-8226 leukemia): 2.19 µM
- TGI (RPMI-8226 leukemia): 5.33 µM
- GI50 (OVCAR-8 ovarian): 2.83 µM
- TGI (OVCAR-8 ovarian): 8.57 µM
- GI50 (OVCAR-3 ovarian): 10.3 µM
- TGI (OVCAR-3 ovarian): > 100 µM
- GI50 (UACC-62 melanoma): 1.89 µM
- TGI (UACC-62 melanoma): 3.89 µM
- GI50 (SF-268 CNS): 13.2 µM
- TGI (SF-268 CNS): 55 µM
- GI50 (U251 CNS): 2.11 µM
- TGI (U251 CNS): 4.91 µM
- GI50 (PC-3 prostate): 5.37 µM
- TGI (PC-3 prostate): > 100 µM
- GI50 (HT29 colon): 1.63 µM
- TGI (HT29 colon): 3.29 µM
- GI50 (HCT-15 colon): 1.82 µM
- TGI (HCT-15 colon): 3.6 µM
- GI50 (KM12 colon): 2.34 µM
- TGI (KM12 colon): 5.47 µM
- GI50 (SF-539 CNS): 1.87 µM
- TGI (SF-539 CNS): 3.98 µM
- GI50 (SK-MEL-28 melanoma): 1.74 µM
- TGI (SK-MEL-28 melanoma): 3.19 µM
- GI50 (NCI-H522 lung): 11.6 µM
- TGI (NCI-H522 lung): 28.9 µM
- GI50 (ACHN renal): 2.14 µM
- TGI (ACHN renal): 4.45 µM
- GI50 (NCI-H460 lung): 1.87 µM
- TGI (NCI-H460 lung): 3.45 µM
- GI50 (UACC-257 melanoma): 12.8 µM
- TGI (UACC-257 melanoma): 26.4 µM
- GI50 (HOP-92 NSCLC): 2.42 µM
- TGI (HOP-92 NSCLC): 15.9 µM
- GI50 (OVCAR-4 ovarian): 5.62 µM
- TGI (OVCAR-4 ovarian): > 100 µM
- GI50 (CCRF-CEM leukemia): 2.22 µM
- TGI (CCRF-CEM leukemia): 5.93 µM
- GI50 (786-0 renal): 1.68 µM
- TGI (786-0 renal): 3.57 µM
- GI50 (M14 melanoma): 1.75 µM
- TGI (M14 melanoma): 3.21 µM
- GI50 (LOX IMVI melanoma): 1.81 µM
- TGI (LOX IMVI melanoma): 3.34 µM
- GI50 (COLO 205 colon): 1.87 µM
- TGI (COLO 205 colon): 3.52 µM
- GI50 (UO-31 renal): 4.35 µM
- TGI (UO-31 renal): 17.2 µM
- GI50 (SK-OV-3 ovarian): 36.6 µM
- TGI (SK-OV-3 ovarian): > 100 µM
- GI50 (DU-145 prostate): 6.53 µM
- TGI (DU-145 prostate): > 100 µM
- GI50 (T-47D breast): 3.59 µM
- TGI (T-47D breast): 15.4 µM
- GI50 (SK-MEL-2 melanoma): 16 µM
- TGI (SK-MEL-2 melanoma): 31.2 µM
- GI50 (SW-620 colon): 1.85 µM
- TGI (SW-620 colon): 3.41 µM
- GI50 (IGROV1 ovarian): 4.81 µM
- TGI (IGROV1 ovarian): 61.2 µM
- GI50 (MALME-3M melanoma): 1.75 µM
- TGI (MALME-3M melanoma): 3.42 µM
- GI50 (NCI/ADR-RES ovarian): 5.76 µM
- TGI (NCI/ADR-RES ovarian): > 100 µM
- GI50 (MOLT-4 leukemia): 2.32 µM
- TGI (MOLT-4 leukemia): 5.27 µM
- GI50 (HL-60(TB) leukemia): 1.55 µM
- TGI (HL-60(TB) leukemia): 3.56 µM
- GI50 (A498 renal): 16.1 µM
- TGI (A498 renal): 31.6 µM
